This note sets out measurements from ChEMBL document CHEMBL1201862, “PubChem BioAssay data set” (2004).

SMILES strings stand for the structures. Active and inactive are the calls of the source.

Assay [1] addresses T1, Estrogen receptor beta (Homo sapiens, UniProt Q92731). The assay can be described thus: blockers of SRC-3 recruitment to ERβ – biochemical, ELISA, streptavidin-HRP readout, orthogonal assay, confirmation (AID 1060). A general note: ELISA stands for enzyme-linked immunosorbent assay.
For assay [2], the target named is Tyrosine-protein phosphatase non-receptor type 11 (Homo sapiens, UniProt Q06124). The assay can be described thus: PTPN11 enzyme inhibitors – biochemical, selectivity assay for STEP inhibitor project, dose response (AID 602367). The conditions noted are these: read-out: IC50_Mean. The class given is functional.
Assay [3] addresses T2, Carboxy-terminal domain RNA polymerase II polypeptide A small phosphatase 1 (Homo sapiens, UniProt Q9GZU7).
T2 sequence (Q9GZU7 whole entry): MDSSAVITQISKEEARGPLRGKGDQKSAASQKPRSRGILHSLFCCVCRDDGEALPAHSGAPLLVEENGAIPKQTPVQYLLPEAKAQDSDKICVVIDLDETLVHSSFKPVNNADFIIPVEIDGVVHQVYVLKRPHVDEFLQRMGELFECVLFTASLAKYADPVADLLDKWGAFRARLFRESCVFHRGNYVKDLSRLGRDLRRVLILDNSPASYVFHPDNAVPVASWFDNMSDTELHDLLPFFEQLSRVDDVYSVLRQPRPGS
Description: CTDSP1 inhibitors, concentration-response, biochemical, absorbance readout, ultra-high-throughput screen actives (AID 540297). In kind it is functional.

The target in assay [4] is T3, Tyrosine-protein phosphatase non-receptor type 22 (Homo sapiens, UniProt Q9Y2R2).
T3 sequence (Q9Y2R2 whole entry): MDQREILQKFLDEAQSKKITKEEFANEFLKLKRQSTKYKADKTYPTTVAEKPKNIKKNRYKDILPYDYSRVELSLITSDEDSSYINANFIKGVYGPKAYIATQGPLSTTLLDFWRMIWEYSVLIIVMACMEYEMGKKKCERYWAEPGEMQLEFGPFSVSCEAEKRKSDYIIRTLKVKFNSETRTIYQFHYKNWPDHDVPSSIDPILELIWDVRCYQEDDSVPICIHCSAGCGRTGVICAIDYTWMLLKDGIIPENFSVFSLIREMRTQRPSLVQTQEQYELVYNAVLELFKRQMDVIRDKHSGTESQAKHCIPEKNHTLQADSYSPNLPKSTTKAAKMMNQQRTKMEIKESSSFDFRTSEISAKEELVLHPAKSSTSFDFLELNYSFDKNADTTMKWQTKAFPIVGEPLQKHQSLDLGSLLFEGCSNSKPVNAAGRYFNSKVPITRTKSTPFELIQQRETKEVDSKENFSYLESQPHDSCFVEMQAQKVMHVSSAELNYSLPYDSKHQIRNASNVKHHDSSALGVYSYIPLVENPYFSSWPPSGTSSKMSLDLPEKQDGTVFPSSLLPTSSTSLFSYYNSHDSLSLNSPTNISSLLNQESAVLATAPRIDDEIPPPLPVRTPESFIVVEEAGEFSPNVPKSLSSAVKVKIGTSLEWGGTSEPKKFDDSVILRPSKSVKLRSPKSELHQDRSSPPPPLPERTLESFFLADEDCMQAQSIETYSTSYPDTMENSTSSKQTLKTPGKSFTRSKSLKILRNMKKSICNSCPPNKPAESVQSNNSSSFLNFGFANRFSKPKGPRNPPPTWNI
The assay can be described thus: lymphoid phosphatase LYP inhibitors – biochemical, selectivity assay for STEP inhibitor project, dose response (AID 624241). In kind it is functional.

A further assay has as its target Estrogen receptor (Homo sapiens, UniProt P03372).
Another assay concerns the target T4, Bcl-2-like protein 10 (Homo sapiens, UniProt Q9HD36).
T4 sequence (Q9HD36 whole entry): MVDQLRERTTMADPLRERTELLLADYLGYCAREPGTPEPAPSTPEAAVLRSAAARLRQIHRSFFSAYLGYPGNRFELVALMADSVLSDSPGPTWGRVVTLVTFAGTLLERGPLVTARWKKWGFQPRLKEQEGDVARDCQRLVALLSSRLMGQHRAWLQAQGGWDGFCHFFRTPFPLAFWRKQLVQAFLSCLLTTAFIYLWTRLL
The assay can be described thus: Bcl-B/TR3 peptide binding disruption – biochemical, fluorescence polarization, FITC-TR3 peptide, selectivity assay for Bfl-1 inhibitor project, primary screen (AID 748).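 Also: fluorescence polarization from a fluorescein-labelled TR3 peptide binding purified Bcl-B.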 For orientation: In fluorescence polarisation assays a small probe gives low polarisation when free and higher when bound to something large.

Assay [5] deals with Tyrosine-protein phosphatase non-receptor type 5 (Homo sapiens, UniProt P54829). Description: PTPN5 enzyme inhibition – biochemical, fluorescence intensity, uHTS hits, confirmation (AID 602372). The class given is functional. The following applies: read-out: IC50_Mean.
Assay [6] deals with Dual specificity protein phosphatase 3 (Homo sapiens, UniProt P51452). Description: VHR phosphatase inhibition, dose response, selectivity assay for STEP inhibitor project, biochemical (AID 602374). In kind it is functional. The following applies: read-out: IC50_Mean.
Assay [7] deals with T1, Estrogen receptor beta.
Another assay addresses Cytochrome P450 3A4 (Homo sapiens, UniProt P08684).
Assay [8] addresses T5, Low molecular weight phosphotyrosine protein phosphatase (Homo sapiens, UniProt P24666). In kind it is functional. The conditions noted are these: read-out: IC50_Mean.
A further assay deals with Cytochrome P450 2C19 (Homo sapiens, UniProt P33261). Description: Cytochrome panel assay with activity outcomes. Panel member name: p450-cyp2c19 Compounds with AC50 equal or less than 10 uM are considered active. In kind it is functional. The following applies: read-out: AC50.
In assay [9] the target is T5, Low molecular weight phosphotyrosine protein phosphatase. In kind it is functional. The conditions noted are these: read-out: IC50_Mean. This is another data set of the same source.
Assay [10] deals with T6, Probable nicotinate-nucleotide adenylyltransferase (Staphylococcus aureus (strain N315), UniProt P65502). In kind it is functional, Staphylococcus aureus subsp. aureus N315.
In assay [11] the target is T6, Probable nicotinate-nucleotide adenylyltransferase. In kind it is functional, Staphylococcus aureus subsp. aureus N315. The conditions noted are these: read-out: IC50_Mean.
Assay [12] has as its target Hepatocyte nuclear factor 4-alpha (Homo sapiens, UniProt P41235). The class given is functional, cell-based.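 Also: biochemical luminescence-based dose-response counterscreen measuring inhibition of HNF4 dimerization, run alongside a screen for blockers of ABHD5–perilipin-5 interaction; split luciferase complementation of HNF4 fusion proteins in cell lysate measuring dimerization.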
For assay [13], the target named is T7, Rac GTPase-activating protein 1 (Homo sapiens, UniProt Q9H0H5).
T7 sequence (Q9H0H5 whole entry): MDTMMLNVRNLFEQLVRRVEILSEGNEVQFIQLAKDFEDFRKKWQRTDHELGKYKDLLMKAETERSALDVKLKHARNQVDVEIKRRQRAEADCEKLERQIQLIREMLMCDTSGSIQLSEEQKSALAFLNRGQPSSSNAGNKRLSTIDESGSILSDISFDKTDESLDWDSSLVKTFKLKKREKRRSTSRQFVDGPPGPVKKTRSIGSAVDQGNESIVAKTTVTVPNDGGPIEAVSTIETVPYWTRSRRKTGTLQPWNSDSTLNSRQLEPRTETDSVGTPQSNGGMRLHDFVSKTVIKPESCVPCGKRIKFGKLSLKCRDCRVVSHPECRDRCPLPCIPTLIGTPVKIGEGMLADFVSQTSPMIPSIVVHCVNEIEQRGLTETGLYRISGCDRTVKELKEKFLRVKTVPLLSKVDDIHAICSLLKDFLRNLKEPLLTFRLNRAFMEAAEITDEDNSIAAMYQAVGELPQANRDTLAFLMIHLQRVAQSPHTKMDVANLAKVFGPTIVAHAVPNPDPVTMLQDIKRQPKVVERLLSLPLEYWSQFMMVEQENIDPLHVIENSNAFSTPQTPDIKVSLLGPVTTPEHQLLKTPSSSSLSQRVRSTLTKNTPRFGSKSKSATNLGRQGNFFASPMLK
The assay can be described thus: blockers of MgcRacGAP-driven Rac1 GTP hydrolysis – biochemical, ADP Hunter fluorescence, primary and confirmatory, confirmation (AID 624330). In kind it is functional.

Assay [14] concerns the target Arf-GAP with SH3 domain, ANK repeat and PH domain-containing protein 1 (Homo sapiens, UniProt Q9ULH1). In kind it is functional.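 Also: biochemical fluorescence polarization dose–response screen measuring inhibition of ASAP1; ASAP1 GAP domain stimulating GTP hydrolysis by truncated human ARF1.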
A short description of assay [15]: HEK293 cell viability loss – plate reader, cherry-pick, cytotoxicity control, dose response (AID 651899). In kind it is functional, cell-based.
Assay [16] concerns the target T8, Adenosylmethionine-8-amino-7-oxononanoate aminotransferase (Mycobacterium tuberculosis, UniProt P9WQ81).
T8 sequence (P9WQ81 whole entry): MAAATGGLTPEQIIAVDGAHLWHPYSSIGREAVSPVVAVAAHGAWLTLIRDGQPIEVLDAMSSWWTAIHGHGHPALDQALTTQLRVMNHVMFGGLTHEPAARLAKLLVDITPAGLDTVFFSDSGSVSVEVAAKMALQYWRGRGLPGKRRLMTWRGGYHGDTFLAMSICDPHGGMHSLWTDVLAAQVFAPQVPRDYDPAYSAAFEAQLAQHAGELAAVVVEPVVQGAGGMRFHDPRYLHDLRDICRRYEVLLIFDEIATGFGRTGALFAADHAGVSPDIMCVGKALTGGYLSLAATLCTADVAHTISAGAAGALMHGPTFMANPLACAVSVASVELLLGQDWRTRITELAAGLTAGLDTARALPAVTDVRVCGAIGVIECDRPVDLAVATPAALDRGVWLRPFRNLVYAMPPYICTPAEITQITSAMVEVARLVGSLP
The assay can be described thus: Mycobacterium tuberculosis BioA enzyme inhibitor Measured in Biochemical System Using Plate Reader - 2163-02_Inhibitor_Dose_CherryPick_Activity. In kind it is functional, Mycobacterium tuberculosis UT205.

Assay [17] can be described thus: blockers of CRF-binding protein–CRF-R2 complex – cell-based, uHTS hits, 384-well, dose response (AID 651639). The class given is functional, Homo sapiens. The conditions noted are these: read-out: IC50_Mean.
The target of assay [18] is T9, Corticotropin-releasing factor receptor 2/Corticotropin-releasing factor-binding protein (Homo sapiens, UniProt P24387+Q13324).
T9 sequence (Q13324 whole entry): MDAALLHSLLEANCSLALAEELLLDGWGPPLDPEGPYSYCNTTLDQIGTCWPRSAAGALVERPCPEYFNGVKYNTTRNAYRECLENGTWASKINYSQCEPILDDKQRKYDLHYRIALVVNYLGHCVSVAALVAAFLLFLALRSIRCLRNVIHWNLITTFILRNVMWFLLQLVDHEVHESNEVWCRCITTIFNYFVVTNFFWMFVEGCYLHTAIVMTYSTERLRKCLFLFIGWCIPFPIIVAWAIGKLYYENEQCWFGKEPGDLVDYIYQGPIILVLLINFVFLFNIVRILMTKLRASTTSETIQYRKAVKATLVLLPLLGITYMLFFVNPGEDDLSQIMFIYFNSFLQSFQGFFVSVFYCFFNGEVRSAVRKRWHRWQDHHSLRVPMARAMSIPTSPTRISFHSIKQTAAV
T9 sequence (P24387 whole entry): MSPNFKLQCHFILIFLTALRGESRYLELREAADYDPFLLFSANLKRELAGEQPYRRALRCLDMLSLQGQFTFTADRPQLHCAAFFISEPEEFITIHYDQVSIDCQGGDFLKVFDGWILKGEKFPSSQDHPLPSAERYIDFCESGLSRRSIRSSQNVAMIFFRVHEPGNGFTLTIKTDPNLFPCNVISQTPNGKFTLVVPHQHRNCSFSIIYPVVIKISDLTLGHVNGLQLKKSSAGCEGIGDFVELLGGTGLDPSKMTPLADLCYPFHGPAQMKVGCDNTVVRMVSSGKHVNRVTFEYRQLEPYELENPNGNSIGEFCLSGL
The assay can be described thus: activators of CRF receptor 2 with binding protein – uHTS hits, confirmation (AID 602473). The following applies: read-out: EC50_Mean. In kind it is functional.

For assay [19], the target named is T9, Corticotropin-releasing factor receptor 2/Corticotropin-releasing factor-binding protein. The assay can be described thus: Dose Response confirmation of uHTS hits for small molecule antagonists of the CRF-binding protein and CRF-R2 receptor complex. The following applies: read-out: IC50_Mean. The class given is functional.
Assay [20] concerns the target Photoreceptor-specific nuclear receptor (Homo sapiens, UniProt Q9Y5X4). In kind it is functional, cell-based.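 Also: CHO-S cells with Gal4-NCOR and VP16-NR2E3 two-hybrid luciferase reporter.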

T6 sequence (P65502 whole entry): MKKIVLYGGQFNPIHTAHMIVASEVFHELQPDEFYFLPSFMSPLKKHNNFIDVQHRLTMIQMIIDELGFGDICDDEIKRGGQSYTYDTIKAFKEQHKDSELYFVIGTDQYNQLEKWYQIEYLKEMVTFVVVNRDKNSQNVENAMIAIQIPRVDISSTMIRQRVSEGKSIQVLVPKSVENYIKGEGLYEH
T1 sequence (Q92731 whole entry): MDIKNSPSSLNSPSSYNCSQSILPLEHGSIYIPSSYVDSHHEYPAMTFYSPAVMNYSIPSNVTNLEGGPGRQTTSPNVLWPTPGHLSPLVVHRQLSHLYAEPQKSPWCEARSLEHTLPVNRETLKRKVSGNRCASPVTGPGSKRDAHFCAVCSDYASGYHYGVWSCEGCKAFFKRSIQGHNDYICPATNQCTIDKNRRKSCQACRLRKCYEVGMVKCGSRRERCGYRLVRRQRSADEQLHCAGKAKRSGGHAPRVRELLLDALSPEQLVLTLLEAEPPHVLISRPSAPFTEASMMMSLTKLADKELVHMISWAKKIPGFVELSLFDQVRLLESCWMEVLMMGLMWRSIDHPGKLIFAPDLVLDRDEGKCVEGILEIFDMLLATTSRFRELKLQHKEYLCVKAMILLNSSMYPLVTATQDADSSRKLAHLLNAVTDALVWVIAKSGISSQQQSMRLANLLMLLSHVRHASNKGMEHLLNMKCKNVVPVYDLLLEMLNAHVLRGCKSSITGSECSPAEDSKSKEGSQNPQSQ
T5 sequence (P24666 whole entry): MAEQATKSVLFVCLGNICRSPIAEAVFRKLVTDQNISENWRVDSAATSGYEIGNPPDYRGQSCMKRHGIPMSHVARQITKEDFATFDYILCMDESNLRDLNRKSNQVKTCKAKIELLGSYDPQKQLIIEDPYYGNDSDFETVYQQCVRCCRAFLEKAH
Chain of Estrogen receptor (P03372 whole entry): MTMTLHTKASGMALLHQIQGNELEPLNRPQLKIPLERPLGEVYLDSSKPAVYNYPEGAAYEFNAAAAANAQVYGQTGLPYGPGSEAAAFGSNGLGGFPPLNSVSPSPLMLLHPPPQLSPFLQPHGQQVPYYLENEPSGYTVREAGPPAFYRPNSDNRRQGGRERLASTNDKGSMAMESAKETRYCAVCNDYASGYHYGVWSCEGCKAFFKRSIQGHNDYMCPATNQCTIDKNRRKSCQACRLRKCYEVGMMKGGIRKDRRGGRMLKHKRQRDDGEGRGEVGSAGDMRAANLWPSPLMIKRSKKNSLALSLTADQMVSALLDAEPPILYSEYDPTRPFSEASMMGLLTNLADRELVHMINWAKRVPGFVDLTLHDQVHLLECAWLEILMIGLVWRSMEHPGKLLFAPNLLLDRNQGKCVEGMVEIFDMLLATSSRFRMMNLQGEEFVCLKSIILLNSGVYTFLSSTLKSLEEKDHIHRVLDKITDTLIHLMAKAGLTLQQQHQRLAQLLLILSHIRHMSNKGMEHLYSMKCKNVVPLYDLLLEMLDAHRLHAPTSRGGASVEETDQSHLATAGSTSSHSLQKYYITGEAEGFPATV
Chain of Tyrosine-protein phosphatase non-receptor type 5 (P54829 whole entry): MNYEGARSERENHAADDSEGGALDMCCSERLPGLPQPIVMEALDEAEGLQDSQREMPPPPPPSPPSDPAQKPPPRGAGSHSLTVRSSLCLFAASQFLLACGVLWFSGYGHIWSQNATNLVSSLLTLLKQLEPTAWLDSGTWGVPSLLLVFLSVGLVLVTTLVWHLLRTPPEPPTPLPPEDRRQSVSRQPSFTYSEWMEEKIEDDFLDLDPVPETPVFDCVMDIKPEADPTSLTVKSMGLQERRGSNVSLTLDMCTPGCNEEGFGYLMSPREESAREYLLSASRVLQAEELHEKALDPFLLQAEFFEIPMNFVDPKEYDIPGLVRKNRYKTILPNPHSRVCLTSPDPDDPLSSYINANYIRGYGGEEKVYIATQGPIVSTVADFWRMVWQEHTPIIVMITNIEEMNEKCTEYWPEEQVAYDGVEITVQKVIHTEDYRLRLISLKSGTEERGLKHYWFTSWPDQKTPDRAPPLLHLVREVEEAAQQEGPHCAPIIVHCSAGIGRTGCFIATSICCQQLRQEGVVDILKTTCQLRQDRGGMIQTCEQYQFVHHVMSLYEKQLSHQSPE
Chain of Tyrosine-protein phosphatase non-receptor type 11 (Q06124 whole entry, the tested form may be a part): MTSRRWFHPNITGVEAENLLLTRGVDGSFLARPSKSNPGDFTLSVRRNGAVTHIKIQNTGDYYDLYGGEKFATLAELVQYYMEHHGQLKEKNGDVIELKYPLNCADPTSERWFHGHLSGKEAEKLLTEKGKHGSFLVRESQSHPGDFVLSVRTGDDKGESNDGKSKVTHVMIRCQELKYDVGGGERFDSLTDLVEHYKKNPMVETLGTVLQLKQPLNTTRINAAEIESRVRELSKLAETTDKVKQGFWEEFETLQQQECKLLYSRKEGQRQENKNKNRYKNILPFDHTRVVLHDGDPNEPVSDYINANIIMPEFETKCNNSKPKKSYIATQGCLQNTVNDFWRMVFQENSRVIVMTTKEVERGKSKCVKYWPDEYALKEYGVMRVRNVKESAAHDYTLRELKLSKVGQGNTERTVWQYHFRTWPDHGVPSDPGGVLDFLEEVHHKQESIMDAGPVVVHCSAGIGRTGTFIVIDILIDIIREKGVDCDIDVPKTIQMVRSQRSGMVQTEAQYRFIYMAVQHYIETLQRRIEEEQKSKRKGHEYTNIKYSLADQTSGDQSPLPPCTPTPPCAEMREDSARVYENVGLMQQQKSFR
Chain of Photoreceptor-specific nuclear receptor (Q9Y5X4 whole entry, the tested form may be a part): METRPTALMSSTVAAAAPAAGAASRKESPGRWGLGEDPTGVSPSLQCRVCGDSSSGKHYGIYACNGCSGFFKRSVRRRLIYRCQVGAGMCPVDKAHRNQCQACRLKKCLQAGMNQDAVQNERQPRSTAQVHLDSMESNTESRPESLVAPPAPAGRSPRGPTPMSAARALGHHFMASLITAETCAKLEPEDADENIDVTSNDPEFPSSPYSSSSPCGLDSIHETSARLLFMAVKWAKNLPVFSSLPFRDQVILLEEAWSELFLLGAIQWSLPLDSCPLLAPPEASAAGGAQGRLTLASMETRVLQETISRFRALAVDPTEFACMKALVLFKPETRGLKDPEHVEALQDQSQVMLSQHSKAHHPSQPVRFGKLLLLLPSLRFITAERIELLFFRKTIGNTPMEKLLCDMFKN
Chain of Arf-GAP with SH3 domain, ANK repeat and PH domain-containing protein 1 (Q9ULH1 whole entry, the tested form may be a part): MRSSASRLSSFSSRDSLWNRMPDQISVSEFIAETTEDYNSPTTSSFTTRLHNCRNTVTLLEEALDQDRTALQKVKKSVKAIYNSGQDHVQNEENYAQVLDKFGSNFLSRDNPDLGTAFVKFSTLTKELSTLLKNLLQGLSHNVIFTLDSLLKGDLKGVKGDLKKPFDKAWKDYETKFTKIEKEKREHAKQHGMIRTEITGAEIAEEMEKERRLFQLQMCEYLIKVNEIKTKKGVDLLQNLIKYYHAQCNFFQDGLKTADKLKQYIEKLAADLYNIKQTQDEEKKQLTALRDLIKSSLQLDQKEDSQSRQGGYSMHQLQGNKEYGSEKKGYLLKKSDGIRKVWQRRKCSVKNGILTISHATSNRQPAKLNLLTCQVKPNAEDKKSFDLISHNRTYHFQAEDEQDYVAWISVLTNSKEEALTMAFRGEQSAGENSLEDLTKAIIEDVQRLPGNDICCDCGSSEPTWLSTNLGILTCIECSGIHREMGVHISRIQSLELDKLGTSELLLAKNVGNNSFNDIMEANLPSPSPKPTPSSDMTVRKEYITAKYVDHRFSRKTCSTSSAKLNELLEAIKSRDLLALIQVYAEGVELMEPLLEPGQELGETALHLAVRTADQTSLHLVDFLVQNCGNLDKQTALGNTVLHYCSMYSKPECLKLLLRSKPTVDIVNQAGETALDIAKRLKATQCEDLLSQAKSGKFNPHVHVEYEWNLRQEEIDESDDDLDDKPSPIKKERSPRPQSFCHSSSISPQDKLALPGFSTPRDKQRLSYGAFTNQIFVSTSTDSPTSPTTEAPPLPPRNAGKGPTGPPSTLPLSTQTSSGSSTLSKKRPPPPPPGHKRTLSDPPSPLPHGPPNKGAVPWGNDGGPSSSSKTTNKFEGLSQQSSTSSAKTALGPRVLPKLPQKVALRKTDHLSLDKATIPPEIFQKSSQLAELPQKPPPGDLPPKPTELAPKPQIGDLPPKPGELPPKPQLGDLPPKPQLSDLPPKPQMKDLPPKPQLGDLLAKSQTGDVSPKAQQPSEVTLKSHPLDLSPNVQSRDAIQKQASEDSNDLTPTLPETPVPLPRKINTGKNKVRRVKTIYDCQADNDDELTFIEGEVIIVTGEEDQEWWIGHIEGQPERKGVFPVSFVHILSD
Chain of Hepatocyte nuclear factor 4-alpha (P41235 whole entry, the tested form may be a part): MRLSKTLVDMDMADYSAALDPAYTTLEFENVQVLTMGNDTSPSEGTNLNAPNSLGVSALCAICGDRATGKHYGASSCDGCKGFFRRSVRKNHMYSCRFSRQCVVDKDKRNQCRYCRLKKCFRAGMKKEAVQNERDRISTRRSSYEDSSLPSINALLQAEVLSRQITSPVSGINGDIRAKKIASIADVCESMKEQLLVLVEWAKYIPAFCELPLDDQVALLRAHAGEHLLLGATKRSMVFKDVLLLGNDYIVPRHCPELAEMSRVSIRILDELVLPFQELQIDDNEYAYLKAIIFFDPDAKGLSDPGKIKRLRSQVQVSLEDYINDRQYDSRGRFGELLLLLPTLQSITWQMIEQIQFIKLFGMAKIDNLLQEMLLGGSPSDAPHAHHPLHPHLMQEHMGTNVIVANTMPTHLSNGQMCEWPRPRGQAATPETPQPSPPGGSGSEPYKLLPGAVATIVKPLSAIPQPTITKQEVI
Chain of Dual specificity protein phosphatase 3 (P51452 whole entry): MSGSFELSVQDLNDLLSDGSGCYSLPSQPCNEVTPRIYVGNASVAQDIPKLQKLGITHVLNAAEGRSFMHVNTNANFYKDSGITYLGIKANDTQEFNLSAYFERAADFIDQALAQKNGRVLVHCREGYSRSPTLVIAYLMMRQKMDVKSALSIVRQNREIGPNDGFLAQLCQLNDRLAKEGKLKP

As to `Cc1ccc(S(=O)(=O)Cc2ccc(C(=O)O)o2)cc1`, the IC50 was < 0.023 µM (not active) against Estrogen receptor beta [1]; 0.776 µM (active) in [2]; 3.66 µM (active) in assay [3]; 21.8 µM (inactive) in assay [4]; 18.1 µM (active) at Estrogen receptor; 16 µM (active) at Bcl-2-like protein 10. Besides, the IC50 in assay [5] is 23.4 µM (inactive); in [6] it was 1.03 µM (active); at Estrogen receptor beta [7] it was 5.22 µM (active).
Consider `Cc1ccc(C(=O)NNC(=O)c2cc3cc4ccccc4nc3s2)cc1`, for which the AC50 on Cytochrome P450 3A4 is 4.47 µM (inconclusive); at Cytochrome P450 2C19, 39.8 µM (inconclusive). In addition, the IC50 was 4.33 µM (active) in assay [3]; 52.9 µM (inactive) in assay [8]; 12.8 µM (active) in assay [9]; 12.1 µM (active) in assay [10]; 27.3 µM (active) in [11].
Turning to `CC1(C)C2CCC(CN=C(N)CSS(=O)(=O)O)C1C2` (stereo not given), the IC50 in assay [12] is 4.45 µM (active); in [13] it was 65.3 µM (active).
As for `CC1=CC2=NC(=O)/C(=C\c3ccc(-c4ccc(Cl)cc4)o3)C(=N)N2O1`, in assay [14], the IC50 was 3.41 µM (active).
On to `COc1ccc(-c2[nH]nc3c2CN(C(=O)c2ccc(OC)c(OC)c2)CC3)cc1`, for which the AC50 is 25.6 µM (active) in [15] and 0.912 µM (active) in assay [16].
Consider `COc1ccccc1-c1c(C)nn2c(N3CCN(c4ccccc4OC)CC3)cc(C)nc12`, for which the figures for the IC50 in assay [17] and in [19] were > 20 µM (inactive) and 12.9 µM (active), respectively. Besides, in [18], the EC50 is > 53 µM (inactive).
On to `Cc1cnc(NC(=O)Cc2ccc(Br)cc2)s1`, for which, in assay [20], the IC50 was 1.15 µM (active).

A word on the AC50: it is the midpoint of the concentration-response curve, whichever way the signal moves.
